Results taken from paper PMC8165606, “Effects of Natural Monoamine Oxidase Inhibitors on Anxiety-Like Behavior in Zebrafish” (Frontiers in Pharmacology, 2021).
Where a name gives a salt, the structure may show the parent alone. Read-outs that look alike come from different tables or passages of the source.

Tests used:
zebrafish = settings: for NTT time spent at the top and bottom: 20 min treatment, 5 min test
Procedure: Adult male and female wild-type zebrafish were treated with the compounds for 20 min in a final volume of 50 ml in a 250-ml treatment beaker, one fish at a time. […] If not, the concentration was reduced until no obvious signs of tolerability problems (e.g., seizure-like tail or body movement) were observed.
Following compound treatment in a 250 ml beaker, the fish were briefly rinsed in fresh system water, and then immediately transferred to a trapezoidal tank (14.6 cm height x 5.5 cm width x 27.9 cm top length and x 23.6 cm bottom length) filled with 1.5 L system water (Figure 1B). The behavior of the fish was monitored for the next 5 min by using the Noldus EthoVision XT system (Wageningen, Netherlands), with the camera placed approximately 1 m from the test tank (Figure 1C). The water-filled part of the tank (11.5 cm height) was virtually divided into top, center, and bottom (Figure 1B). The average time spent at the top and bottom portions of the tank was analyzed to determine the anxiety-like behavior of fish. […] The experimenters were blind to the test conditions. A minimum of 12 fish (6 females and 6 males) per condition were used for the study.
The behavioral findings were analyzed in 1 min bins using two-way repeated measures ANOVA with Dunnett post hoc analysis. The analyses were conducted by using GraphPad Prism v8.2.1 (GraphPad Software, San Diego, CA, United States).

MAO A = target: T1, MAO A (Homo sapiens, UniProt P21397); assay: MAO-Glo two-step bioluminescent assay, MAO A; type: biochemical; settings: for Selectivity between MAO A and B: present study
T1 sequence (P21397 1-527): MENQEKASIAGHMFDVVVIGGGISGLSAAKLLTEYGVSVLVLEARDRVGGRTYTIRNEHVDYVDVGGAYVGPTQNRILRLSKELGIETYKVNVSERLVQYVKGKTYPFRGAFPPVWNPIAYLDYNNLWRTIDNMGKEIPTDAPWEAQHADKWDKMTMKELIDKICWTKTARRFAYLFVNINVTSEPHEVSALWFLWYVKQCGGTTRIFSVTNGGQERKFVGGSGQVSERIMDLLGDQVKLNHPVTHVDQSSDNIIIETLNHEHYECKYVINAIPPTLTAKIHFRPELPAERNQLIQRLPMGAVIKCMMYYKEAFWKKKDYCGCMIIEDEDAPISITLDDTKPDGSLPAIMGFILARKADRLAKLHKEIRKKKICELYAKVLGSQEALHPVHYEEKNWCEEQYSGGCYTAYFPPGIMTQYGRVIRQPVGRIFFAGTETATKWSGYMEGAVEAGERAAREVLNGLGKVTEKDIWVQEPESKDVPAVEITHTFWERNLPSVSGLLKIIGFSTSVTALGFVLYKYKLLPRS
Excerpt: (§1) Fluostar Omega 96 Microplate reader (BMG LABTECH GmbH, Ortenberg, Germany) was used to measure the luminescent signal and to determine the IC50 (half maximal inhibitory concentration).

MAO B = target: T2, MAO B (Homo sapiens, UniProt P27338); assay: MAO-Glo two-step bioluminescent assay, MAO B; type: biochemical; settings: mean ± SEM; substrate 3 µM
T2 sequence (P27338 1-520): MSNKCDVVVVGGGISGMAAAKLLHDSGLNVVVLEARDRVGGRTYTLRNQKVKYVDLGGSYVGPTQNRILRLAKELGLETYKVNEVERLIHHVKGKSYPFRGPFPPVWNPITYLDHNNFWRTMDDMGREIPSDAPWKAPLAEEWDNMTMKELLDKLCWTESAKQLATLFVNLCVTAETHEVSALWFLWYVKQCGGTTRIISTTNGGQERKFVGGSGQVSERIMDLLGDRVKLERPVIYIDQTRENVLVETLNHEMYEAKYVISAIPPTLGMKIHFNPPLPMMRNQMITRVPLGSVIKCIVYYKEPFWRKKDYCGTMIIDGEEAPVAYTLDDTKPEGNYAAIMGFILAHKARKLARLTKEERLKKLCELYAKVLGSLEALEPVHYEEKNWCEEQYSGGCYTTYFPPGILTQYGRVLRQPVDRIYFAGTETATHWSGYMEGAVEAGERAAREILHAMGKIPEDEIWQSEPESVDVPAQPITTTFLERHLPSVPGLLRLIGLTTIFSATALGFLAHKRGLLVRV
Excerpt: as §1

serotonin receptor = assay: Pilot in vitro serotonin receptor binding (data not shown); settings: pilot study in vitro
[1] = system: norepinephrine transporter; assay: Pilot in vitro norepinephrine transporter binding (data not shown); settings: pilot study in vitro
zebrafish brain = assay: Ex vivo bioavailability assay in fish brain (UPLC-HRMS or GC/MS); settings: relative brain level per 1 mg/L
Procedure: The fish were decapitated at the level of the gills by using a surgical knife. The head was turned dorsal side down, and, soft tissue was removed from the ventral side of the skull using two forceps until the base of the skull was exposed. The skull was broken open, and the bone from the ventral side of the brain was removed. The brain was then placed in a microcentrifuge tube, weighed, snap-frozen in liquid nitrogen, and stored at −80°C until the analysis.
Briefly, on the day of analysis, the brain samples were defrosted, resuspended in a methanol solution (2:1 [v/v] methanol:MilliQ water), and homogenized with vigorous agitation and ultrasonication (5 min each). The homogenate was centrifuged at 15,000 x rpm for 10 min, and the supernatant was analyzed by using a UPLC-Q Exactive Orbitrap-HRMS system (Thermo Fisher Scientific™, Bremen, Germany) for all compounds except for TMN, which was analyzed by gas chromatography/mass spectrometry (GC/MS) system. Chromatographic separation was achieved on a Synergi™ 4-µm Hydro-RP 80 Å, L.C. […]
For TMN, the Agilent GC/MS system (Agilent, Santa Clara, CA, United States) was used, because it is an apolar aromatic compound that could not be ionized for the detection by the UPLC-Q Exactive Orbitrap-HRMS system. […] The results were quantified using Agilent MS Workstation software (v6.9.3).

MAO-A and MAO-B [2] = system: MAO-A and MAO-B; parameters: method as in Fisar et al., 2010; settings: crude pig brain mitochondrial fractions ref Fisar et al., 2010; cited from earlier work
MAO-A and MAO-B [3] = settings: cited from earlier work
[4] = two highest concentrations tested
[5] = all concentrations tested, throughout the test period

## C#CCN(C)CCCOc1ccc(Cl)cc1Cl [Clorgyline, clorgyline hydrochloride, reference compound]
zebrafish; 10 mg/L
  NTT time spent at the top and bottom: no effect
zebrafish; 30 mg/L
  NTT time spent at the top and bottom: significantly increasing it only during the last 2 min
zebrafish; 100 mg/L
  NTT time spent at the top and bottom: increasing the time spent at the top for almost the entire test period
zebrafish; [4]
  NTT total distance traveled: significantly reduced
zebrafish; zebrafish, in vivo
  Tolerability in zebrafish: borderline of tolerability

## Cc1nccc2c1[nH]c1ccccc12 [Harmane]
MAO A
  IC50: 50 ± 30 nM
  Selectivity between MAO A and B: only MAO A selective inhibitor
MAO A; from IC50 values
  MAO-A selectivity over MAO-B: > 2,000 fold
MAO B
  IC50: > 100000 nM
zebrafish; 1 mg/L
  NTT time spent at the top and bottom: increased the time spent at the top and decreased the time spent at the bottom during the first minute
zebrafish; 3 mg/L
  NTT time spent at the top and bottom: increased the time spent at the top and decreased the time spent at the bottom during the first minute
zebrafish; 10 mg/L
  NTT time spent at the top and bottom: no effect
zebrafish; [5]
  NTT total distance traveled: significantly reduced
zebrafish; highest concentration tested
  NTT freezing time: increased the freezing time during the first 2 min
Serotonin receptor
  Serotonin receptor binding activity: ~10 µM
[1]
  Norepinephrine transporter binding activity: ~10 µM
Zebrafish brain
  Brain level relative to the rest of compounds tested: approximately 10 fold

## c1ccc2c(c1)[nH]c1cnccc12 [Norharmane, norharmane]
zebrafish; 0.3 mg/L
  NTT time spent at the top and bottom: no effect
zebrafish; 1 mg/L
  NTT time spent at the top and bottom: significant effect between 2 and 3 min of the test
zebrafish; 3 mg/L
  NTT time spent at the top and bottom: increased the time spent at the top and decreased the time spent at the bottom during the last 2 min
zebrafish; highest concentration tested
  NTT total distance traveled: significantly reduced
Serotonin receptor
  Serotonin receptor binding activity: ~10 µM
[1]
  Norepinephrine transporter binding activity: ~10 µM

## C#CCN(C)Cc1ccccc1 [Pargyline, pargyline hydrochloride]
zebrafish; 10 mg/L
  NTT time spent at the top and bottom: only an anxiogenic-like effect, but only for the first 1 min of the test
zebrafish; [4]
  NTT total distance traveled: significantly reduced
MAO-A and MAO-B [2]
  Difference between the Ki values of MAO-A and MAO-B: 1.4 fold
MAO-A and MAO-B [3]; recombinant human enzymes ref Oh et al., 2020
  Difference in Ki values of MAO-A and MAO-B: > 100 fold
MAO-A and MAO-B [3]; recombinant human enzymes ref Takao et al., 2019
  Difference in Ki values of MAO-A and MAO-B: 21 fold

## c1ccc2c(c1)CCNC2 [TIQ, 1,2,3,4-tetrahydroisoquinoline]
zebrafish; 10 mg/L
  NTT time spent at the top and bottom: no effect
zebrafish; 30 mg/L
  NTT time spent at the top and bottom: generally increased and decreased the time spent at the top and bottom, respectively
zebrafish; 100 mg/L
  NTT time spent at the top and bottom: generally increased and decreased the time spent at the top and bottom, respectively
zebrafish; 10, 30 and 100 mg/L
  Effect on general movement in NTT: no observable effect on general movement

## CC1=C(C)C(=O)c2cc(C)ccc2C1=O [TMN, 2,3,6-trimethyl-1,4-naphtoquinone]
MAO A; mean ± SEM, substrate 20 µM, read-out: MAO a IC50
  IC50: 1140 ± 740 nM
MAO A
  Selectivity between MAO A and B: no selectivity
MAO B
  IC50: 7140 ± 2290 nM
zebrafish; 10 mg/L
  NTT time spent at the top and bottom: only an anxiogenic-like effect during the last couple of minutes
zebrafish; 30 mg/L
  NTT time spent at the top and bottom: mix of both anxiolytic- and anxiogenic-like behaviors
zebrafish; [5]
  NTT total distance traveled: significantly reduced
zebrafish; highest concentrations tested, relatively high number of fish with long freezing
  Tolerability in zebrafish: borderline of tolerability
zebrafish; [4]
  NTT freezing time: increased the freezing time

## O=C1CC2(CCCC2)CC(=O)N1CCCCN1CCN(c2ncccn2)CC1 [buspirone, Buspirone hydrochloride, reference compound]
zebrafish; 10, 30 and 100 mg/L, two-way ANOVA
  NTT time spent at the top and bottom, treatment effect: significant treatment effect
zebrafish; zebrafish, in vivo
  Tolerability in zebrafish: borderline of tolerability
